Data set [1] concerns the target T1, human brain-derived dopamine D4 receptor (Homo sapiens, UniProt P21917).
T1 construct: expressed in transfected cells; host or cells: CHO (CHO-K1) or HEK293 cells
T1 sequence (P21917 1-419): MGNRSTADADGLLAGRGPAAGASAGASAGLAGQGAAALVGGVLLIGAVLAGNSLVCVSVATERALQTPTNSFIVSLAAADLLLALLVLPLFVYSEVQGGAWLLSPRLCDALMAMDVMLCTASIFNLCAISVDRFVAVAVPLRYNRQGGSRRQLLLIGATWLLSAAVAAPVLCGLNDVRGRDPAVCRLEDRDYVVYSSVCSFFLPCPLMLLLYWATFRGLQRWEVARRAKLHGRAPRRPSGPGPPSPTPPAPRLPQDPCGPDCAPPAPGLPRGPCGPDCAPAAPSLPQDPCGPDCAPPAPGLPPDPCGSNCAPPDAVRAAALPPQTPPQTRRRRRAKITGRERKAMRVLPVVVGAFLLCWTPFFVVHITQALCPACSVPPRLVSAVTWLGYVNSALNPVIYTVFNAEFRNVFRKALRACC
In words: Agonistic activity in G protein dependent pathway of dopamine D4 receptor (aequorin intracellular calcium luminescence, FDSS). The following applies: for EC50: concentration required to achieve a 50% response of Emax, CHO-K1 or HEK293 cells transfected with D4 receptor; for Emax: read-out: Maximal activity on D4 receptor (%). Format: cell-based. In a few lines: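 CHO-K1 or HEK293 cells transfected with D4 receptor, cultured 24 h at 37 °C, preloaded with coelenterazine; aequorin luminescence recorded on FDSS after compound addition. Emax taken as maximal activity; EC50 as concentration giving 50% of Emax.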
Background: Calcium flux is commonly read through the fluorescence of an indicator in the cells.

Data set [2] can be described thus: Brain penetration study in rat (Kp,uu,brain). The following applies: brain and plasma (unbound); 7-week-old SD-type or WKY-type rat; subcutaneous or oral administration; plasma and brain collected 0.5, 1 or 2 hours after administration; LC-MS; read-out: Kp,uu,brain (Unbound brain-to-plasma drug concentration ratio). Format: in vivo. On the procedure:
In this study, the brain penetration of the present compounds can be evaluated. Specifically, a 7-week-old SD-type or WKY-type rat received the subcutaneous administration of a solution of the present compound in saline or the oral administration of a suspension of the present compound in methylcellulose. Plasma and brain were collected from the treated rat 0.5 hour, 1 hour or 2 hours after the administration, and then the concentrations of the present compound in the plasma and the brain were measured by a LC-MS method.
The protein binding ratios of the present compound to the plasma and the brain were measured by an equilibrium dialysis method.
The concentrations of the present compound in the plasma and the brain as well as the plasma and brain protein binding ratios are applied to the following formula, and thus Kp,uu,brain (Unbound brain-to-plasma drug concentration ratio) can be calculated.
Kp,uu,brain=(the concentration of the present compound in the brain×(100−the brain protein binding ratio (%))/100)/(the concentration of the present compound in the plasma×(100−the plasma protein binding ratio (%))/100)

Each structure is given as a SMILES string. Counter-ions that a name gives are not always drawn.

Turning to `Cc1ncc(CN2CCn3nc(-c4ccccn4)cc3C2)c(N)n1` [Example 22, 2-Methyl-5-{[2-(pyridin-2-yl)-6,7-dihydropyrazolo[1,5-a]pyrazin-5(4H)-yl]methyl}pyrimidine-4-amine], in data set [1], the EC50 amounted to 109 nM and the Emax amounted to 62%. Further, the Kp uu in data set [2] worked out at 0.2.
The corresponding values for `Cc1cccnc1-c1cc2n(n1)CCN(Cc1ccc3c(n1)CCC3)C2` [Example 113] are 13 nM, 104% and 0.77.
The corresponding values for `Cc1ncc(CN2CCn3nc(-c4ncccc4C)c(C)c3C2)cn1` [Example 116] are 131 nM, 67% and 1.42.
The corresponding values for `Cc1c(-c2ncccc2F)nn2c1CN(Cc1ccc(C(F)(F)F)cn1)CC2` [Example 128] are 36 nM, 86% and 0.6.
Regarding `Fc1cccnc1-c1cc2n(n1)CCN(Cc1ccc3c(n1)CCC3)C2` [Example 129], in data set [1], the EC50 stood at 14 nM and the Emax came to 91%. Moreover, the Kp uu in data set [2] turned out to be 0.58.
Turning to `Cc1cccnc1-c1cc2n(n1)CCN(Cc1nc3ccccc3[nH]1)C2` [Example 144], in data set [1], the EC50 was 41 nM and the Emax is 49%. Also, in data set [2], the Kp uu worked out at 0.79.
In the case of `Cn1c(CN2CCn3nc(-c4ncccc4F)cc3C2)nc2ccccc21` [Example 164], in data set [1], the EC50 was found to be 55 nM and the Emax is 64%.
The corresponding values for `Fc1cccnc1-c1cc2n(n1)CCN(Cc1c[nH]c3ccccc13)C2` [Example 165] are 22 nM and 65%.
As to `Cn1cc(CN2CCn3nc(-c4ncccc4F)cc3C2)c2ccccc21` [Example 166], in data set [1], the EC50 came out at 44 nM and the Emax was determined as 85%.
Consider `Cn1nc(CN2CCn3nc(-c4ncccc4F)cc3C2)c2ccccc21` [Example 167], for which, in data set [1], the EC50 was 17 nM and the Emax was found to be 69%.
With `Cn1nc2ccccc2c1CN1CCn2nc(-c3ncccc3F)cc2C1` [Example 168], in data set [1], the EC50 turned out to be 82 nM and the Emax is 65%.
With `Fc1ccc(CN2CCn3nc(-c4ncccc4F)cc3C2)cn1` [Example 169], in data set [1], the EC50 turned out to be 51 nM and the Emax worked out at 80%.
The corresponding values for `Cc1ncc(CN2CCn3nc(-c4ncccc4C)cc3C2)cn1` [Example 170] are 152 nM and 48%.
The corresponding values for `Cc1ncc(CN2CCn3nc(-c4ncccc4F)cc3C2)cn1` [Example 171] are 252 nM and 48%.
Turning to `Cc1ncc(CN2CCn3nc(-c4ccccn4)c(Cl)c3C2)c(N)n1` [Example 172, 5-{[3-Chloro-2-(pyridin-2-yl)-6,7-dihydropyrazolo[1,5-a]pyrazin-5 (4H)-yl]methyl}-2-methylpyrimidine-4-amine], in data set [1], the EC50 amounted to 90 nM and the Emax was 53%.
The corresponding values for `Clc1c(-c2ccccn2)nn2c1CN(Cc1ccccc1)CC2` [Example 173, 5-Benzyl-3-chloro-2-(pyridin-2-yl)-4,5,6,7-tetrahydropyrazolo[1,5-a]pyrazine] are 12 nM and 63%.
Take `FC(F)(F)c1c(-c2ccccn2)nn2c1CN(Cc1ccccc1)CC2` [Example 175]: in data set [1], the EC50 turned out to be 92 nM and the Emax came to 50%.
In the case of `Cc1ccc(CN2CCn3nc(-c4ncccn4)cc3C2)cc1` [Example 176], in data set [1], the EC50 was 41 nM and the Emax stood at 39%.
The corresponding values for `Cc1cccnc1-c1cc2n(n1)CCN(Cc1ccc(OC(F)(F)F)c(F)c1)C2` [Example 177, 5-[3-Fluoro-4-(trifluoromethoxy)benzyl]-2-(3-methylpyridin-2-yl)-4,5,6,7-tetrahydropyrazolo[1,5-a]pyrazine monohydrochloride] are 141 nM and 39%.
The corresponding values for `Cc1cccnc1-c1cc2n(n1)CCN(Cc1ccc(Cl)c(C)n1)C2` [Example 178] are 32 nM and 50%.
Consider `Cc1c(-c2ncccc2F)nn2c1CN(Cc1ccc(C(F)F)cn1)CC2` [Example 179], for which, in data set [1], the EC50 was found to be 64 nM and the Emax came to 38%.
Consider `Cc1cccnc1-c1cc2n(n1)CCN(Cc1ccc(CF)c(C)n1)C2` [Example 180], for which, in data set [1], the EC50 is 38 nM and the Emax amounted to 63%.
In the case of `Cc1cccnc1-c1cc2n(n1)CCN(Cc1cc3c(cn1)CCC3)C2` [Example 181], in data set [1], the concentration giving a half-maximal response (EC50) came out at 43 nM and the Emax came to 43%.
For the compound `Cc1cccnc1-c1cc2n(n1)CCN(Cc1cc3c(cn1)COC3)C2` [Example 182], in data set [1], the EC50 is 79 nM and the Emax stood at 47%.
Regarding `Cc1cccnc1-c1cc2n(n1)CCN(Cc1ncc(Br)cc1F)C2` [Example 183], in data set [1], the EC50 was determined as 108 nM and the Emax came out at 49%.
Take `Cc1cnc(CN2CCn3nc(-c4ncccc4C)cc3C2)c(F)c1` [Example 184]: in data set [1], the EC50 came to 116 nM and the Emax amounted to 51%.
The corresponding values for `Cc1cccnc1-c1cc2n(n1)CCN(Cc1cc3c(cn1)OCC3)C2` [Example 185] are 82 nM and 51%.
Consider `Cc1cccnc1-c1cc2n(n1)CCN(Cc1cnc3c(c1)CCCC3)C2` [Example 186], for which, in data set [1], the EC50 is 51 nM and the Emax came to 44%.
The corresponding values for `Cc1cc(CN2CCn3nc(-c4ncccc4C)cc3C2)cnc1Cl` [Example 187] are 32 nM and 66%.
The corresponding values for `Cc1cc(CN2CCn3nc(-c4ncccc4C)cc3C2)cnc1C` [Example 188] are 44 nM and 63%.
The corresponding values for `Cc1cccnc1-c1cc2n(n1)CCN(Cc1cnc(C)c(Cl)c1)C2` [Example 189, 5-[(5-Chloro-6-methylpyridin-3-yl)methyl]-2-(3-methylpyridin-2-yl)-4,5,6,7-tetrahydropyrazolo[1,5-a]pyrazine] are 57 nM and 49%.
`Cc1ncc(CN2CCn3nc(-c4ncccc4C)cc3C2)c(C)n1` [Example 190, 5-[(2,4-Dimethylpyrimidin-5-yl)methyl]-2-(3-methylpyridin-2-yl)-4,5,6,7-tetrahydropyrazolo[1,5-a]pyrazine]: in data set [1], the EC50 came to 60 nM and the Emax is 61%.
`Cc1ncc(CN2CCn3nc(-c4ncccc4F)cc3C2)c(C)n1` [Example 191]: in data set [1], the EC50 was 43 nM and the Emax was determined as 76%.
The corresponding values for `Cc1cccnc1-c1cc2n(n1)CCN(Cc1cnc(C(F)(F)F)nc1)C2` [Example 195] are 84 nM and 35%.
`Cc1cccnc1-c1cc2n(n1)CCN(Cc1cnc(C(F)F)nc1)C2` [Example 196]: in data set [1], the EC50 worked out at 55 nM and the Emax was 29%.
The corresponding values for `Fc1cccnc1-c1cc2n(n1)CCN(Cc1cnc(C(F)(F)F)nc1)C2` [Example 198] are 45 nM and 33%.
As for `Fc1cccnc1-c1cc2n(n1)CCN(Cc1cnc(C(F)F)nc1)C2` [Example 199], in data set [1], the concentration for a half-maximal effect (EC50) stood at 101 nM and the Emax was determined as 36%.
The corresponding values for `Cc1cccnc1-c1cc2n(n1)CCN(Cc1cnc(C(C)C)nc1)C2` [Example 203] are 37 nM and 54%.
`CC(C)c1ncc(CN2CCn3nc(-c4ncccc4F)cc3C2)cn1` [Example 204]: in data set [1], the EC50 was 44 nM and the Emax came to 50%.

Usually EC50 stands for the concentration at which the effect is half-maximal.

The values are drawn from patent US20160318933A1, “FUSED PYRAZOLE DERIVATIVE” (SUMITOMO DAINIPPON PHARMA CO., LTD., priority 2013, published 2016).
